The record followed here is ChEMBL document CHEMBL1124383, “Carbamyl analogues of potent nicotinic agonists: pharmacology and computer-assisted molecular modeling study” (J Med Chem, 1989).

This assay relates to frog. Briefly: Potency with reference to carbamylcholine at the frog neuromuscular junction, expressed as reciprocal of equipotent molar ratio. In kind it is functional.
For `C[N+]1(C)CCN(C(N)=O)CC1`, the Potency worked out at 0.15. The figure for `CC(=O)N1CC[N+](C)(C)CC1` is 2.6; for `CC(=O)C1=CC[N+](C)(C)CC1` it is 50.

Take `C[N+]1(C)CCC(C(N)=O)CC1`: the Potency worked out at 0.052. For `CC(=O)C1CC[N+](C)(C)CC1`, the Potency was 9.1. As for `C[N+]1(C)CC=C(C(N)=O)CC1`, the Potency was determined as 0.77.
